Data on one molecule can be found in article PMC12797502, “Effects of emodepside on single-channel properties of Onchocerca volvulus SLO-1A (BK) potassium channels” (Parasites & Vectors, 2025).

Each structure is given as a SMILES string.

The target of this assay is T1, Ovo-SLO-1A (Onchocerca volvulus, UniProt A0A2K6W0E9).
T1 construct: T2A-linked GFP as transfection marker; homotetramer; Ala350 printed in S6 (natural residue)
Put plainly: inside-out and whole-cell patch clamp, transfected HEK293 cells. The format is biochemical. Conditions: activator; 0.3 µM (inside-out, +20 mV, 100 µM free Ca2+, bath pH 7.2) or 1 µM (whole-cell, +20 mV); room temperature; empty-vector control.

T1 sequence (A0A2K6W0E9 1-1119): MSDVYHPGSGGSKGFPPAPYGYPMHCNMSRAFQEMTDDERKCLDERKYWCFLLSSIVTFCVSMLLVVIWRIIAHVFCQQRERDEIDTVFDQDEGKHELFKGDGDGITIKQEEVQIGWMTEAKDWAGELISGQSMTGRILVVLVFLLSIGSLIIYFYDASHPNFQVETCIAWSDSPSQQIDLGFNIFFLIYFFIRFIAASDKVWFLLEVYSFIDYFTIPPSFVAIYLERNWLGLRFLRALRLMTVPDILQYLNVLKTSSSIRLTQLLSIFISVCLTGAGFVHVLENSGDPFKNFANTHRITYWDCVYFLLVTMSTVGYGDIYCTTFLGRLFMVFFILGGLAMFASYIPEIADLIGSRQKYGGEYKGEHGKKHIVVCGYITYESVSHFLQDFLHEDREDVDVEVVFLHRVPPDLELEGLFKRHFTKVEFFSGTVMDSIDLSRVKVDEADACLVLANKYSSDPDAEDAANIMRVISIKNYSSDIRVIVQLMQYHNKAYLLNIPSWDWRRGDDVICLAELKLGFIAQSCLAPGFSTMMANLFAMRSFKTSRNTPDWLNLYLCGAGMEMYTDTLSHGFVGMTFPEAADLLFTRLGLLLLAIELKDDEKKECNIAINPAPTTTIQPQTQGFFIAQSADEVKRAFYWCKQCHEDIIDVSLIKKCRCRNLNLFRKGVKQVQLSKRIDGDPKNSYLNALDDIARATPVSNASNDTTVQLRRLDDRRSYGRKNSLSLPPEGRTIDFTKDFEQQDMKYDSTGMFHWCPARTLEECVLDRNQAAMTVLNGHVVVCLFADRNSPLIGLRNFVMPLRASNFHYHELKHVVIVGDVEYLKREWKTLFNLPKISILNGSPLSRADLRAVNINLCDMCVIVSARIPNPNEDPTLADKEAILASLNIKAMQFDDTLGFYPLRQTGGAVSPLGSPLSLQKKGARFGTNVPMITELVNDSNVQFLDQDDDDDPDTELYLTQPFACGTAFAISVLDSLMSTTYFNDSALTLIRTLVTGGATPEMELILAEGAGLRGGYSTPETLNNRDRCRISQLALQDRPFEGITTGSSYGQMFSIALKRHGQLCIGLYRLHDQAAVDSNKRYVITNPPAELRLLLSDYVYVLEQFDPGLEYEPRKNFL

With `CC(C)C[C@H]1C(=O)O[C@H](Cc2ccc(N3CCOCC3)cc2)C(=O)N(C)[C@@H](CC(C)C)C(=O)O[C@H](C)C(=O)N(C)[C@@H](CC(C)C)C(=O)O[C@H](Cc2ccc(N3CCOCC3)cc2)C(=O)N(C)[C@@H](CC(C)C)C(=O)O[C@H](C)C(=O)N1C` [Emodepside], the “inside-out and whole-cell patch clamp, transfected HEK293 cells” value is “The probability of the channel being open, Popen, significantly increased”.
